Data: the NIST ThermoML archive (doi:10.1016/j.fluid.2005.11.017)
Several values for one entry are separate records, joined by “and”; a condition that tells them apart may be missing. Identical values can stand only once. ± gives the expanded uncertainty stated by the source.

settings: 313.15 K; Liquid

vapor or sublimation pressure | SMILES
24.38 ± 0.18 kPa and 24.36 ± 0.18 kPa | c1ccccc1 [benzene]
4.015 ± 0.056 kPa [middle of 4 runs] | CC(C)CO [2-methyl-1-propanol]

SMILES | vapor or sublimation pressure
CC(C)OC(C)C [diisopropyl ether] | 37.11 ± 0.27 kPa and 37.09 ± 0.27 kPa and 37.14 ± 0.27 kPa
